According to patent US20080312581A1, “Peptosomes for Use in Acoustically Mediated Intracellular Drug Delivery in vivo” (Biovaluation & Analysis, Inc., priority 2007, published 2008):

Tested on: Henrietta Lacks (HeLa) cells and human aortic smooth muscle cells (AoSMC)
Assay: Ultrasound-mediated peptosome rupture and intracellular calcein delivery, flow cytometry
Assay type: cell-based
Settings: calcein released from peptosomes, contrast agent present
From the text: Ultrasound. Ultrasonic energy is produced using an immersible, focused, piezoceramic transducer. In this experimental system, two different matching resistance networks are necessary, allowing production of sound at 1.0 MHz and 3.0 MHz, similar to a method known in the art (Guzmán et al., 2001a, 2001b, 2002, and 2003; and […] et al., 2006). A sinusoidal waveform is produced by, for example, programmable waveform generators (Stanford Research Instruments, Sunnyvale, Calif.) used in conjunction to control pulse length, frequency, and peak-to-peak voltage. The sinusoidal waveform is amplified by an RF broadband power amplifier (Electronic Navigation Industries, Rochester, N.Y.) before passing through a matching network and controlling the response of the transducer. The transducer is housed in a polycarbonate tank (FIG. 11 [601]) -34.5×32×40 cm; containing approximately 34 liters of deionized, distilled, and partially degassed water at room temperature (i.e., 22° C. to 23° C.). A thick acoustic absorber is mounted opposite the transducer to minimize standing-wave formation (not illustrated). […] A metal rod (606) is immediately inserted into the open end of the sample chamber and then attached to the three-axis positioning system (603), placing the sample in the desired location as determined by the hydrophone (604). […]

Compound: O=C(O)CN(CC(=O)O)Cc1cc2c(cc1O)Oc1cc(O)c(CN(CC(=O)O)CC(=O)O)cc1C21OC(=O)c2ccccc21 [calcein, Calcein]
- calcein uptake into cells (mild ultrasound conditions): low levels
- calcein uptake into cells (moderate ultrasound conditions): as many as one-third of cells
